Molecular target: GST-tagged-Wee1 kinase (Homo sapiens, UniProt P30291)
Assay: Wee1 time-resolved fluorescence equilibrium binding assay (displacement of Oregon Green-labeled ATP-competitive kinase probe)
Experimental: Wee1 kinase was assayed using a time-resolved fluorescence equilibrium binding assay monitoring displacement of a rapidly reversible Oregon Green-labeled ATP-competitive kinase probe (N-(2-(2-(2-(4-(4-(5-chloro-4-(2-(1-hydroxycyclobutyl)thiazol-5-yl)-1H-pyrrolo[2,3-b]pyridin-2-yl)phenyl)piperazin-1-yl)ethoxy)ethoxy)ethyl)-2′,7′-difluoro-3′,6′-dihydroxy-3-oxo-3H-spiro[isobenzofuran-1,9′-xanthene]-5-carboxamide) by competitive Wee1 inhibitors.

GST-tagged-Wee1 kinase, sequence (P30291 whole entry): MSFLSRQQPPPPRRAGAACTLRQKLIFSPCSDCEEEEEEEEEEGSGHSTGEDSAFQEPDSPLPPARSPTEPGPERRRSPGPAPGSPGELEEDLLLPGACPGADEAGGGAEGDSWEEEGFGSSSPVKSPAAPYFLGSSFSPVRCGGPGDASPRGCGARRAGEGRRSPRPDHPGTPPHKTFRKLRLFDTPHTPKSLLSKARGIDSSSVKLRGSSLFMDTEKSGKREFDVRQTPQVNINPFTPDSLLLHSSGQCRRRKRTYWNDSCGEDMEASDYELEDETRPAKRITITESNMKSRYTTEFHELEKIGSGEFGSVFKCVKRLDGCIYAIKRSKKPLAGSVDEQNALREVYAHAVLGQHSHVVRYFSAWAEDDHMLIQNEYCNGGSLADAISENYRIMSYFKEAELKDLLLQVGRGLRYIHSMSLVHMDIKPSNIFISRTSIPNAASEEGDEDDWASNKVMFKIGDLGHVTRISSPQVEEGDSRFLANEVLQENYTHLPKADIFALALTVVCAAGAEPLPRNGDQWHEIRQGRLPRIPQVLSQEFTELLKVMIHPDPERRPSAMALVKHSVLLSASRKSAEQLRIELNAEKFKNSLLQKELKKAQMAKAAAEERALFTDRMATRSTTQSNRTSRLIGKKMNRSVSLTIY

Q: `CN1CCN(c2ccc(Nc3ncc4c(=O)n(-c5c(Cl)cccc5Cl)nc(-c5cc[nH]n5)c4n3)cc2)CC1` [Example 231, 6-(2,6-dichlorophenyl)-2-{[4-(4-methylpiperazin-1-yl)phenyl]amino}-8-(1H-pyrazol-3-yl)pyrimido[4,5-d]pyridazin-5(6H)-one] was tested. Which Ki did it give?
A: 0.1 nM

Q: With `CN1CCN(c2ccc(Nc3ncc4c(=O)n(-c5c(Cl)cccc5Cl)nc(-c5ccn(CCN6CCCCC6)n5)c4n3)cc2)CC1` [Example 232, 6-(2,6-dichlorophenyl)-2-{[4-(4-methylpiperazin-1-yl)phenyl]amino}-8-{1-[2-(piperidin-1-yl)ethyl]-1H-pyrazol-3-yl}pyrimido[4,5-d]pyridazin-5(6H)-one] as the compound, how does the Ki read?
A: 0.2 nM

Q: Which Ki does the source give for `Cc1ccccc1-n1nc(-c2ccco2)c2nc(Nc3ccc4c(c3)CN(C)CC4)ncc2c1=O` [Example 233, 8-(furan-2-yl)-6-(2-methylphenyl)-2-[(2-methyl-1,2,3,4-tetrahydroisoquinolin-7-yl)amino]pyrimido[4,5-d]pyridazin-5(6H)-one] here?
A: 0.3 nM

Q: Which Ki does the source give for `CN1CCN(c2ccc(Nc3ncc4c(=O)n(-c5c(Cl)cccc5Cl)nc(-c5ccn(CCCl)n5)c4n3)cc2)CC1` [Example 234, 8-[1-(2-chloroethyl)-1H-pyrazol-3-yl]-6-(2,6-dichlorophenyl)-2-{[4-(4-methylpiperazin-1-yl)phenyl]amino}pyrimido[4,5-d]pyridazin-5(6H)-one] here?
A: 0.3 nM

Q: Which Ki does the source give for `CN1CCN(c2ccc(Nc3ncc4c(=O)n(-c5c(Cl)cccc5Cl)nc(-c5ccn(CCN)n5)c4n3)cc2)CC1` [Example 235, 8-[1-(2-aminoethyl)-1H-pyrazol-3-yl]-6-(2,6-dichlorophenyl)-2-{[4-(4-methylpiperazin-1-yl)phenyl]amino}pyrimido[4,5-d]pyridazin-5(6H)-one] here?
A: 0.1 nM

Q: `C=Cn1ccc(-c2nn(-c3c(Cl)cccc3Cl)c(=O)c3cnc(Nc4ccc(N5CCN(C)CC5)cc4)nc23)n1` [Example 236, 6-(2,6-dichlorophenyl)-8-(1-ethenyl-1H-pyrazol-3-yl)-2-{[4-(4-methylpiperazin-1-yl)phenyl]amino}pyrimido[4,5-d]pyridazin-5(6H)-one] was tested. Which Ki did it give?
A: < 1 nM

Q: With `O=c1c2cnc(Nc3ccc(N4CCNCC4)cc3)nc2c(-c2cccc(CN3CCCCC3)c2)nn1-c1c(Cl)cccc1Cl` [Example 237, 6-(2,6-dichlorophenyl)-2-{[4-(piperazin-1-yl)phenyl]amino}-8-[3-(piperidin-1-ylmethyl)phenyl]pyrimido[4,5-d]pyridazin-5(6H)-one] as the compound, how does the Ki read?
A: 0.2 nM

Q: Which Ki does the source give for `CC1(C)CNCc2cc(Nc3ncc4c(=O)n(-c5ccncc5)nc(-c5ccccn5)c4n3)ccc21` [Example 238, 2-[(4,4-dimethyl-1,2,3,4-tetrahydroisoquinolin-7-yl)amino]-8-(pyridin-2-yl)-6-(pyridin-4-yl)pyrimido[4,5-d]pyridazin-5(6H)-one] here?
A: 34 nM

Q: With `CN1Cc2cc(Nc3ncc4c(=O)n(-c5ccncc5)nc(-c5ccccn5)c4n3)ccc2C(C)(C)C1` [Example 239, 8-(pyridin-2-yl)-6-(pyridin-4-yl)-2-[(2,4,4-trimethyl-1,2,3,4-tetrahydroisoquinolin-7-yl)amino]pyrimido[4,5-d]pyridazin-5(6H)-one] as the compound, how does the Ki read?
A: 25 nM

Q: How did the Ki turn out when `CN(C)CCn1ccc(-c2nn(-c3c(Cl)cccc3Cl)c(=O)c3cnc(Nc4ccc(N5CCN(C)CC5)cc4)nc23)n1` [Example 240, 6-(2,6-dichlorophenyl)-8-{1-[2-(dimethylamino)ethyl]-1H-pyrazol-3-yl}-2-{[4-(4-methylpiperazin-1-yl)phenyl]amino}pyrimido[4,5-d]pyridazin-5(6H)-one] was run?
A: 0.5 nM

Q: Which Ki does the source give for `CN1Cc2cc(Nc3ncc4c(=O)n(-c5c(Cl)cccc5Cl)nc(-c5ccccn5)c4n3)ccc2C(C)(C)C1` [Example 241, 6-(2,6-dichlorophenyl)-8-(pyridin-2-yl)-2-[(2,4,4-trimethyl-1,2,3,4-tetrahydroisoquinolin-7-yl)amino]pyrimido[4,5-d]pyridazin-5(6H)-one] here?
A: 0.1 nM

Q: How did the Ki turn out when `CN1Cc2cc(Nc3ncc4c(=O)n(CCO)nc(-c5ccccn5)c4n3)ccc2C(C)(C)C1` [Example 242, 6-(2-hydroxyethyl)-8-(pyridin-2-yl)-2-[(2,4,4-trimethyl-1,2,3,4-tetrahydroisoquinolin-7-yl)amino]pyrimido[4,5-d]pyridazin-5(6H)-one] was run?
A: 50 nM

Q: `CN1CCN(c2ccc(Nc3ncc4c(=O)n(-c5c(Cl)cccc5Cl)nc(-c5cccc(F)n5)c4n3)cc2)CC1` [Example 243, 6-(2,6-dichlorophenyl)-8-(6-fluoropyridin-2-yl)-2-{[4-(4-methylpiperazin-1-yl)phenyl]amino}pyrimido[4,5-d]pyridazin-5(6H)-one] was tested. Which Ki did it give?
A: < 1 nM

Q: `CN1CCN(c2ccc(Nc3ncc4c(=O)n(-c5c(Cl)cccc5Cl)nc(-c5ccc(N6CCCC6=O)cc5)c4n3)cc2)CC1` [Example 244, 6-(2,6-dichlorophenyl)-2-{[4-(4-methylpiperazin-1-yl)phenyl]amino}-8-[4-(2-oxopyrrolidin-1-yl)phenyl]pyrimido[4,5-d]pyridazin-5(6H)-one] was tested. Which Ki did it give?
A: 0.5 nM

Q: With `CN1CCc2ccc(Nc3ncc4c(=O)n(-c5ccccc5Cl)nc(-c5ccccc5)c4n3)cc2C1` [Example 245, 6-(2-chlorophenyl)-2-[(2-methyl-1,2,3,4-tetrahydroisoquinolin-7-yl)amino]-8-phenylpyrimido[4,5-d]pyridazin-5(6H)-one] as the compound, how does the Ki read?
A: 0.7 nM

Q: Which Ki does the source give for `Cc1cc(Nc2ncc3c(=O)n(-c4ccccc4C)nc(-c4ccco4)c3n2)ccc1N1CCCN(C(C)C)CC1` [Example 246, 8-(furan-2-yl)-6-(2-methylphenyl)-2-({3-methyl-4-[4-(propan-2-yl)-1,4-diazepan-1-yl]phenyl}amino)pyrimido[4,5-d]pyridazin-5(6H)-one] here?
A: 0.3 nM

Q: `O=C1CCCN1c1ccc(-c2nn(-c3c(Cl)cccc3Cl)c(=O)c3cnc(Nc4ccc5c(c4)CNCC5)nc23)cc1` [Example 247, 6-(2,6-dichlorophenyl)-8-[4-(2-oxopyrrolidin-1-yl)phenyl]-2-(1,2,3,4-tetrahydroisoquinolin-7-ylamino)pyrimido[4,5-d]pyridazin-5(6H)-one] was tested. Which Ki did it give?
A: 0.2 nM

Q: For `CN1CCN(c2ccc(Nc3ncc4c(=O)n(-c5c(Cl)cccc5Cl)nc(-c5ccnc(C(=O)N(C)C)c5)c4n3)cc2)CC1` [Example 248, 4-[6-(2,6-dichlorophenyl)-2-{[4-(4-methylpiperazin-1-yl)phenyl]amino}-5-oxo-5,6-dihydropyrimido[4,5-d]pyridazin-8-yl]-N,N-dimethylpyridine-2-carboxamide], which Ki is on record?
A: 0.4 nM

Q: With `O=c1c2cnc(Nc3ccc(N4CCNCC4)cc3)nc2c(-c2ccccn2)nn1C1CCCCC1` [Example 249, 6-cyclohexyl-2-{[4-(piperazin-1-yl)phenyl]amino}-8-(pyridin-2-yl)pyrimido[4,5-d]pyridazin-5(6H)-one] as the compound, how does the Ki read?
A: 1500 nM

Q: For `CN1CCN(c2ccc(Nc3ncc4c(=O)n(-c5c(Cl)cccc5Cl)nc(-c5ccnc(C(C)(C)O)c5)c4n3)cc2)CC1` [Example 250, 6-(2,6-dichlorophenyl)-8-[2-(2-hydroxypropan-2-yl)pyridin-4-yl]-2-{[4-(4-methylpiperazin-1-yl)phenyl]amino}pyrimido[4,5-d]pyridazin-5(6H)-one], which Ki is on record?
A: 0.2 nM

Q: With `O=c1c2cnc(Nc3ccc4c(c3)CNCC4)nc2c(-c2cnccn2)nn1-c1c(Cl)cccc1Cl` [Example 251, 6-(2,6-dichlorophenyl)-8-(pyrazin-2-yl)-2-(1,2,3,4-tetrahydroisoquinolin-7-ylamino)pyrimido[4,5-d]pyridazin-5(6H)-one] as the compound, how does the Ki read?
A: 0.2 nM

Source: patent publication US8796289B2 (AbbVie Inc., priority 2011, dated 2014)
